{
  "source": "patent US9365584B2",
  "about": "“Thieno [2,3-B] pyridinedione activators of AMPK and therapeutic uses thereof” (Poxel, priority 2009, dated 2016)",
  "data": [
    {"test_system": "AMPK", "experiment": "AMPK enzyme activity assay (Delfia technology, AMARA peptide substrate)", "assay_type": "biochemical", "conditions": "compound at 30 μM vs AMP at 200 μM", "in_short": "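Value is the ratio of compound (30 μM) to AMP (200 μM) response, each as % of basal control. Phosphorylation of the AMARA peptide after AMPK addition was read by Delfia with an anti-phosphoserine antibody.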", "values": [
      {"smiles": "O=C1Nc2sc(Cl)c(-c3ccccc3F)c2C(=O)C1(F)c1ccccc1", "note": "(stereo not shown) [No 73, 2-chloro-5-fluoro-3-(2-fluorophenyl)-5-phenyl-7H-thieno[2,3-b]pyridine-4,6-dione]", "Activity: Ratio between the % of control (basal activity) of compound of formula (1) at 30 μM and the % of control (basal activity) of AMP (natural substrate) at 200 μM": "C (C≧75%)"},
      {"smiles": "COc1ccc(-c2c(Cl)sc3c2C(=O)C(F)(c2ccccc2)C(=O)N3)c(F)c1", "note": "(stereo not shown) [No 74, 2-chloro-5-fluoro-3-(2-fluoro-4-methoxy-phenyl)-5-phenyl-7H-thieno[2,3-b]pyridine-4,6-dione]", "Activity: Ratio between the % of control (basal activity) of compound of formula (1) at 30 μM and the % of control (basal activity) of AMP (natural substrate) at 200 μM": "C (C≧75%)"},
      {"smiles": "Cc1ccc(C2(C)C(=O)Nc3sc(Cl)c(-c4ccccc4F)c3C2=O)cc1", "note": "(stereo not shown) [No 75, 2-chloro-3-(2-fluorophenyl)-5-methyl-5-(p-tolyl)-7H-thieno[2,3-b]pyridine-4,6-dione]", "Activity: Ratio between the % of control (basal activity) of compound of formula (1) at 30 μM and the % of control (basal activity) of AMP (natural substrate) at 200 μM": "A (0%<A<50%)"},
      {"smiles": "COc1cccc(C2(C)C(=O)Nc3sc(Cl)c(-c4ccccc4F)c3C2=O)c1", "note": "(stereo not shown) [No 76, 2-chloro-3-(2-fluorophenyl)-5-(3-methoxyphenyl)-5-methyl-7H-thieno[2,3-b]pyridine-4,6-dione]", "Activity: Ratio between the % of control (basal activity) of compound of formula (1) at 30 μM and the % of control (basal activity) of AMP (natural substrate) at 200 μM": "A (0%<A<50%)"},
      {"smiles": "O=C1Nc2sc(Cl)c(-c3ccc(O)c(F)c3)c2C(=O)C1(F)c1ccccc1", "note": "(stereo not shown) [No 77, 2-chloro-5-fluoro-3-(3-fluoro-4-hydroxy-phenyl)-5-phenyl-7H-thieno[2,3-b]pyridine-4,6-dione]", "Activity: Ratio between the % of control (basal activity) of compound of formula (1) at 30 μM and the % of control (basal activity) of AMP (natural substrate) at 200 μM": "B (50%≦B<75%)"},
      {"smiles": "COc1ccccc1C1(F)C(=O)Nc2sc(C)c(-c3ccccc3)c2C1=O", "note": "(stereo not shown) [No 78, 5-fluoro-5-(2-methoxyphenyl)-2-methyl-3-phenyl-7H-thieno[2,3-b]pyridine-4,6-dione]", "Activity: Ratio between the % of control (basal activity) of compound of formula (1) at 30 μM and the % of control (basal activity) of AMP (natural substrate) at 200 μM": "A (0%<A<50%)"},
      {"smiles": "Cc1cccc(-c2c(Cl)sc3c2C(=O)C(F)(c2ccccc2)C(=O)N3)c1", "note": "(stereo not shown) [No 79, 2-chloro-5-fluoro-3-(m-tolyl)-5-phenyl-7H-thieno[2,3-b]pyridine-4,6-dione]", "Activity: Ratio between the % of control (basal activity) of compound of formula (1) at 30 μM and the % of control (basal activity) of AMP (natural substrate) at 200 μM": "C (C≧75%)"},
      {"smiles": "Cc1ccc(-c2c(Cl)sc3c2C(=O)C(F)(c2ccccc2)C(=O)N3)cc1", "note": "(stereo not shown) [No 80, 2-chloro-5-fluoro-5-phenyl-3-(p-tolyl)-7H-thieno[2,3-b]pyridine-4,6-dione]", "Activity: Ratio between the % of control (basal activity) of compound of formula (1) at 30 μM and the % of control (basal activity) of AMP (natural substrate) at 200 μM": "C (C≧75%)"},
      {"smiles": "COc1ccc(-c2c(Cl)sc3c2C(=O)C(F)(c2ccccc2)C(=O)N3)cc1", "note": "(stereo not shown) [No 81, 2-chloro-5-fluoro-3-(4-methoxyphenyl)-5-phenyl-7H-thieno[2,3-b]pyridine-4,6-dione]", "Activity: Ratio between the % of control (basal activity) of compound of formula (1) at 30 μM and the % of control (basal activity) of AMP (natural substrate) at 200 μM": "B (50%≦B<75%)"},
      {"smiles": "CS(=O)(=O)c1cccc(C2(F)C(=O)Nc3sc(Cl)c(-c4ccccc4)c3C2=O)c1", "note": "(stereo not shown) [No 82, 2-chloro-5-fluoro-5-(3-methylsulfonylphenyl)-3-phenyl-7H-thieno[2,3-b]pyridine-4,6-dione]", "Activity: Ratio between the % of control (basal activity) of compound of formula (1) at 30 μM and the % of control (basal activity) of AMP (natural substrate) at 200 μM": "A (0%<A<50%)"},
      {"smiles": "Cc1cccc(C2(C)C(=O)Nc3sc(Cl)c(-c4ccc(F)cc4)c3C2=O)c1", "note": "(stereo not shown) [No 83, 2-chloro-3-(4-fluorophenyl)-5-methyl-5-(m-tolyl)-7H-thieno[2,3-b]pyridine-4,6-dione]", "Activity: Ratio between the % of control (basal activity) of compound of formula (1) at 30 μM and the % of control (basal activity) of AMP (natural substrate) at 200 μM": "A (0%<A<50%)"},
      {"smiles": "COc1ccc(C2(C)C(=O)Nc3sc(Cl)c(-c4ccccc4F)c3C2=O)cc1", "note": "(stereo not shown) [No 84, 2-chloro-3-(2-fluorophenyl)-5-(4-methoxyphenyl)-5-methyl-7H-thieno[2,3-b]pyridine-4,6-dione]", "Activity: Ratio between the % of control (basal activity) of compound of formula (1) at 30 μM and the % of control (basal activity) of AMP (natural substrate) at 200 μM": "B (50%≦B<75%)"},
      {"smiles": "COc1ccc(-c2c(Cl)sc3c2C(=O)C(C)(c2cccc(F)c2)C(=O)N3)cc1", "note": "(stereo not shown) [No 85, 2-chloro-5-(3-fluorophenyl)-3-(4-methoxyphenyl)-5-methyl-7H-thieno[2,3-b]pyridine-4,6-dione]", "Activity: Ratio between the % of control (basal activity) of compound of formula (1) at 30 μM and the % of control (basal activity) of AMP (natural substrate) at 200 μM": "A (0%<A<50%)"},
      {"smiles": "COc1ccc(-c2c(Cl)sc3c2C(=O)C(C)(c2ccc(OC)cc2)C(=O)N3)cc1", "note": "(stereo not shown) [No 86, 2-chloro-3,5-bis(4-methoxyphenyl)-5-methyl-7H-thieno[2,3-b]pyridine-4,6-dione]", "Activity: Ratio between the % of control (basal activity) of compound of formula (1) at 30 μM and the % of control (basal activity) of AMP (natural substrate) at 200 μM": "A (0%<A<50%)"},
      {"smiles": "COc1ccc(-c2c(Cl)sc3c2C(=O)C(C)(c2cccc(C)c2)C(=O)N3)cc1", "note": "(stereo not shown) [No 87, 2-chloro-3-(4-methoxyphenyl)-5-methyl-5-(m-tolyl)-7H-thieno[2,3-b]pyridine-4,6-dione]", "Activity: Ratio between the % of control (basal activity) of compound of formula (1) at 30 μM and the % of control (basal activity) of AMP (natural substrate) at 200 μM": "A (0%<A<50%)"},
      {"smiles": "COc1ccc(-c2c(Cl)sc3c2C(=O)C(C)(c2cccc(OC)c2)C(=O)N3)cc1", "note": "(stereo not shown) [No 88, 2-chloro-5-(3-methoxyphenyl)-3-(4-methoxyphenyl)-5-methyl-7H-thieno[2,3-b]pyridine-4,6-dione]", "Activity: Ratio between the % of control (basal activity) of compound of formula (1) at 30 μM and the % of control (basal activity) of AMP (natural substrate) at 200 μM": "A (0%<A<50%)"},
      {"smiles": "CC1(c2ccccc2F)C(=O)Nc2sc(Cl)c(-c3ccccc3F)c2C1=O", "note": "(stereo not shown) [No 89, 2-chloro-3,5-bis(2-fluorophenyl)-5-methyl-7H-thieno[2,3-b]pyridine-4,6-dione]", "Activity: Ratio between the % of control (basal activity) of compound of formula (1) at 30 μM and the % of control (basal activity) of AMP (natural substrate) at 200 μM": "A (0%<A<50%)"},
      {"smiles": "CC1(c2cccc(F)c2)C(=O)Nc2sc(Cl)c(-c3ccccc3F)c2C1=O", "note": "(stereo not shown) [No 90, 2-chloro-3-(2-fluorophenyl)-5-(3-fluorophenyl)-5-methyl-7H-thieno[2,3-b]pyridine-4,6-dione]", "Activity: Ratio between the % of control (basal activity) of compound of formula (1) at 30 μM and the % of control (basal activity) of AMP (natural substrate) at 200 μM": "A (0%<A<50%)"},
      {"smiles": "CC1(c2ccc(F)cc2)C(=O)Nc2sc(Cl)c(-c3ccccc3F)c2C1=O", "note": "(stereo not shown) [No 91, 2-chloro-3-(2-fluorophenyl)-5-(4-fluorophenyl)-5-methyl-7H-thieno[2,3-b]pyridine-4,6-dione]", "Activity: Ratio between the % of control (basal activity) of compound of formula (1) at 30 μM and the % of control (basal activity) of AMP (natural substrate) at 200 μM": "A (0%<A<50%)"},
      {"smiles": "Cc1cccc(C2(C)C(=O)Nc3sc(Cl)c(-c4ccccc4F)c3C2=O)c1", "note": "(stereo not shown) [No 92, 2-chloro-3-(2-fluorophenyl)-5-methyl-5-(m-tolyl)-7H-thieno[2,3-b]pyridine-4,6-dione]", "Activity: Ratio between the % of control (basal activity) of compound of formula (1) at 30 μM and the % of control (basal activity) of AMP (natural substrate) at 200 μM": "A (0%<A<50%)"},
      {"smiles": "O=C1Nc2sc(Cl)c(-c3ccncc3)c2C(=O)C1(F)c1ccccc1", "note": "(stereo not shown) [No 93, 2-chloro-5-fluoro-5-phenyl-3-(4-pyridyl)-7H-thieno[2,3-b]pyridine-4,6-dione]", "Activity: Ratio between the % of control (basal activity) of compound of formula (1) at 30 μM and the % of control (basal activity) of AMP (natural substrate) at 200 μM": "A (0%<A<50%)"},
      {"smiles": "COc1cccc(-c2c(Cl)sc3c2C(=O)C(F)(c2ccccc2)C(=O)N3)c1", "note": "(stereo not shown) [No 94, 2-chloro-5-fluoro-3-(3-methoxyphenyl)-5-phenyl-7H-thieno[2,3-b]pyridine-4,6-dione]", "Activity: Ratio between the % of control (basal activity) of compound of formula (1) at 30 μM and the % of control (basal activity) of AMP (natural substrate) at 200 μM": "C (C≧75%)"}
    ]}
  ]
}
